The values that follow come from ChEMBL document CHEMBL3822405, “Binding mode prediction of aplysiatoxin, a potent agonist of protein kinase C, through molecular simulation and structure-activity study on simplified analogs of the receptor-recognition domain” (Bioorg Med Chem, 2016).

For orientation: Ki means a dissociation constant, usually derived from enzyme kinetics or from competition with a known ligand. A high value points to lower affinity.

A value given as a limit tells only on which side of the number the result lay.

The test concerns the target Protein kinase C delta type (Mus musculus, UniProt P28867). The experiment in a line: Inhibition of [3H]PDBu binding to PKCdelta C1B domain in CD-1 mouse brain cytosol incubated for 30 mins.

Sequence of Protein kinase C delta type (P28867 whole entry, the tested form may be a part): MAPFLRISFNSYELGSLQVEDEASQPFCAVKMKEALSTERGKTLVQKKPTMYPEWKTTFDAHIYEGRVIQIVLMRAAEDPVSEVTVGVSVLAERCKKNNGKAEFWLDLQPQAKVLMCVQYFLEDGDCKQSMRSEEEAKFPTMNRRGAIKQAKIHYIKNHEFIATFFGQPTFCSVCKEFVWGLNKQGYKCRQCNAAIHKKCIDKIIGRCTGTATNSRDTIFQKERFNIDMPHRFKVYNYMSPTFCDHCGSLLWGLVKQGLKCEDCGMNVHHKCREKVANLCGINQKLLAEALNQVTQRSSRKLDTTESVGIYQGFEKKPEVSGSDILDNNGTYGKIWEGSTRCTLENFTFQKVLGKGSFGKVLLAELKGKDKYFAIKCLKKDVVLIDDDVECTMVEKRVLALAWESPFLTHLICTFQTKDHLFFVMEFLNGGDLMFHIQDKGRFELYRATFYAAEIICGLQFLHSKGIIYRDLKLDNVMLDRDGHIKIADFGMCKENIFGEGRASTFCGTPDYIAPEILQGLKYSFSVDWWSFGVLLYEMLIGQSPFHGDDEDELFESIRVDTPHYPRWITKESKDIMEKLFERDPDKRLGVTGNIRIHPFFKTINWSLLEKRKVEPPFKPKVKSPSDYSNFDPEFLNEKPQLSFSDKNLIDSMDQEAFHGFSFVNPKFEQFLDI

`CCCCCCCCOC(=O)C[C@@H](OC(=O)CCCCCCC)[C@@H](C)O` gave a Ki of 370 nM. `CCCCCCCCOC(=O)C[C@@H](OCCCCCCCC)[C@@H](C)O` returned an inhibitory constant (Ki) of 2900 nM. For `CCCCCCCCC[C@@H](OC(=O)CCCCCCC)[C@@H](C)O`, the inhibitory constant (Ki) was greater than 20000 nM.
